# Data as given in patent publication US8580577B2, “Method for detecting an analyte in a sample” (Evotec AG, priority 2002, dated 2013).
# Tests used:
# [1] = system: c-fos mRNA; test: Expression of c-fos mRNA in HepG2 cells stimulated with PMA (homogeneous bead-based detection oligonucleotide assay, confocal imaging); format: cell-based; settings: for Mean average fluorescence signal intensity/bead pixel: 1 h
# Method: (§1) Fully automated dual-channel confocal imaging was performed with two independent cooled CCD detectors. Excitation wavelengths were 532 nm and 633 nm, a dichroic beam splitter with 630 nm was used and emission filters were 565/50 nm and 690/40 nm. Laser power was ˜500 μW for both wavelengths, measured at the entrance of the objective. Exposure times were usually in the range of 500-1000 ms.
# An image of the sample was acquired at 565 nm by the first CCD detector. This image is called the signal image. At this wavelength, the emission of the detection oligonucleotides is seen. Therefore, in principle one can see the fluorescence emission of both the unbound detection oligonucleotides as well as the detection oligonucleotides bound specifically to the analyte (and consequently via the capture oligonucleotides to the beads). To distinguish these signals from each other, the present invention teaches to minimize the emission of the unbound detection oligonucleotides by the use of complementary quencher oligonucleotides. The signal intensity on the beads is linear dependent on the analyte concentration, i.e. in the present example the mRNA concentration.
# In addition, an image of the sample was acquired at 690 nm by the second CCD detector. This image is called the reference image. At this wavelength, the emission of the biotinylated red oxazine dye is seen. The fluorescence of the biotinylated red oxazine dye bound to the beads can be seen as a red ring in the reference image (see FIG. 6, left picture). This emission of the dyes bound to the beads can be distinguished from the background emission of the unbound biotinylated red oxazine dye through threshold techniques. This fluorescence intensity is constant and not dependent on the mRNA analyte concentration, see FIG. 5 for illustration. At extremely high mRNA concentrations it may become inversely related to the mRNA concentrations due to limited streptavidin binding sites, however, under physiological conditions and in the experiments presented here this was not the case.
# The analysis of the images was performed with image analysis software as follows. Segmentation of the beads from the background was performed on a pixel-basis in the reference image. […] A mask of these rings corresponding to detected beads was generated from the reference image. This mask was applied to the signal image (see FIG. 6, right picture). Areas within the outer boundary of the ring were evaluated for fluorescence intensity stemming from the DO-analyte-CO complex bound to the bead. […] Such local background intensity was then subtracted from the signal intensity.
# The final result was the mean fluorescence intensity/bead pixel of the signal image. In general, the intensity was averaged over all correctly detected beads of the image. The beads were usually comprised in wells of micro- or nanotiter plates and in some cases, several images were taken of each well. In this instance, the intensity was averaged over all images of one well.
# HepG2 cells were seeded at a density of 2*10^6 cells in 10 ml medium/plate (corresponding to 2*10^5 cells/ml) in nine 10 cm tissue culture plates (Greiner bio-one, catalogue no. 664160) in DMEM-F12 (Gibco, catalogue no. 31331-028) supplemented with 10% FCS (Gibco, catalogue no. 10500-064). The cells were incubated for 48 h at 37° C. with 5% CO2. Then medium was changed to DMEM (Sigma, catalogue no. D 5921) supplemented with 0.1% sterile filtered HSA (Sigma, catalogue no. A 1653) and incubation was continued for 24 h at 37° C. with 5% CO2. Then the cells were incubated with PMA (Phorbol 12-myristate 13-acetate, Sigma, catalogue no. P1585) for 1 h at 37° C. and 5% CO2 to induce expression of c-fos. 500 μl of appropriate PMA dilutions in DMEM with 0.1% HSA were added, for final concentrations refer to table 4 below.
# One control plate was used for cell counting, the final cell number was 1.5*10^7 cells/plate. […]
# [2] = system: Cyp1A1; settings: Cyp1A1 induction by 3-methylcholanthrene, publication of Delescluse et al.; read-out: EC50 roughly estimated from a published Northern Blot; cited from earlier work
# [3] = system: CYP1A1 mRNA; test: Expression of cyp1A1 mRNA in HepG2 cells stimulated with 3-methylcholanthrene (homogeneous bead-based detection oligonucleotide assay); format: cell-based; settings: human, 24 h 3-MC, each of three plates, standard deviation 0.05 μM between plates
# Method: as §1
# An image of the sample was acquired at 565 nm by the first CCD detector. This image is called the signal image. At this wavelength, the emission of the detection oligonucleotides is seen. Therefore, in principle one can see the fluorescence emission of both the unbound detection oligonucleotides as well as the detection oligonucleotides bound specifically to the analyte (and consequently via the capture oligonucleotides to the beads). […]
# In addition, an image of the sample was acquired at 690 nm by the second CCD detector. […] The fluorescence of the biotinylated red oxazine dye bound to the beads can be seen as a red ring in the reference image (see FIG. 6, left picture). […] This fluorescence intensity is constant and not dependent on the mRNA analyte concentration, see FIG. 5 for illustration. […]
# The analysis of the images was performed with image analysis software as follows. […] A mask of these rings corresponding to detected beads was generated from the reference image. […]
Compound,"average expression rate of c-fos mRNA ([1]; 100 nM PMA, 7.2*10^4 lysed cells per well)","c-fos mRNA copy number per well ([1]; 100 nM PMA, 24 μl of lysate, from the calibration of example 1a)","EC50 ([1]; HepG2 cells, 1 h PMA, read-out: EC50 of increase in c-fos expression)","Mean average fluorescence signal intensity/bead pixel ([1]; HepG2 cells, PMA 0.5 nM)","Mean average fluorescence signal intensity/bead pixel ([1]; HepG2 cells, PMA 1 nM)","Mean average fluorescence signal intensity/bead pixel ([1]; HepG2 cells, PMA 10 nM)","Mean average fluorescence signal intensity/bead pixel ([1]; HepG2 cells, PMA 100 nM)","Mean average fluorescence signal intensity/bead pixel ([1]; HepG2 cells, PMA 500 nM)","Mean average fluorescence signal intensity/bead pixel ([1]; HepG2 cells, PMA 1000 nM)",EC50 [2],EC50 at 24 h [3]
"CCCCCCCCCCCCCC(=O)O[C@@H]1[C@@H](C)[C@@]2(O)[C@@H](C=C(CO)C[C@]3(O)C(=O)C(C)=C[C@@H]23)[C@@H]2C(C)(C)[C@]12OC(C)=O [PMA, Phorbol 12-myristate 13-acetate]",42 copies mRNA/cell,3.03*10^6 copies mRNA/well,0.484 µM,1.51,1.53,4.84,14.29,24.44,30.03,–,–
"Cc1ccc2cc3c(ccc4ccccc43)c3c2c1CC3 [3-MC, 3-methylcholanthrene]",–,–,–,–,–,–,–,–,–,~0.5 µM,0.8 µM
